# Key:
# mGAT1 [1] = biological target: T1, mGAT1 (Mus musculus, UniProt P31648); test: [3H]GABA uptake assay in HEK-293 cells stably expressing mGAT1; type: cell-based; details: for IC50: [3H]GABA uptake, read-out: pIC50 ± SEM mGAT1 (converted); for remaining [3H]GABA uptake mGAT1: in the presence of 100 μM inhibitor
# T1 construct: expressed in transfected cells; host or cells: HEK-293
# mGAT2 = biological target: T2, mGAT2 (Mus musculus, UniProt P31651); test: [3H]GABA uptake assay in HEK-293 cells stably expressing mGAT2; type: cell-based; details: for IC50: [3H]GABA uptake, read-out: pIC50 ± SEM mGAT2 (converted); for remaining [3H]GABA uptake mGAT2: in the presence of 100 μM inhibitor
# T2 construct: expressed in transfected cells; host or cells: HEK-293
# T2 sequence (P31651 1-614): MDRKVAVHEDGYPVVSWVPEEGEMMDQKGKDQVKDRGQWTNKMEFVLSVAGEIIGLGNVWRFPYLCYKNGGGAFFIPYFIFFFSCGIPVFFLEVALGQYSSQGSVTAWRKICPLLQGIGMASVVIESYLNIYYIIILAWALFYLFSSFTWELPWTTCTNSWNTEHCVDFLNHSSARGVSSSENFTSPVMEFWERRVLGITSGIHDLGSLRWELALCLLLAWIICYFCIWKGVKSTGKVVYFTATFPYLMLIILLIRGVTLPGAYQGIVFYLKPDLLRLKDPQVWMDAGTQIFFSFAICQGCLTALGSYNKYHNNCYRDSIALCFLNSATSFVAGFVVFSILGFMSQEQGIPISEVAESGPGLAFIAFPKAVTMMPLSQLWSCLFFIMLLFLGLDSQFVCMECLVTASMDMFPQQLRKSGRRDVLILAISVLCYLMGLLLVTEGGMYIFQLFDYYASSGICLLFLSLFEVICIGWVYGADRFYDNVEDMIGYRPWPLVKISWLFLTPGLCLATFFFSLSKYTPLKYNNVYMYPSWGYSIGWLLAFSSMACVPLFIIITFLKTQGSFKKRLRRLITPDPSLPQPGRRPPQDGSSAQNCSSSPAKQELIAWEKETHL
# mGAT3 = biological target: T3, mGAT3 (Mus musculus, UniProt P31649); test: [3H]GABA uptake assay in HEK-293 cells stably expressing mGAT3; type: cell-based; details: for IC50: [3H]GABA uptake, read-out: pIC50 ± SEM mGAT3 (converted); for remaining [3H]GABA uptake mGAT3: in the presence of 100 μM inhibitor
# T3 construct: expressed in transfected cells; host or cells: HEK-293
# T3 sequence (P31649 1-602): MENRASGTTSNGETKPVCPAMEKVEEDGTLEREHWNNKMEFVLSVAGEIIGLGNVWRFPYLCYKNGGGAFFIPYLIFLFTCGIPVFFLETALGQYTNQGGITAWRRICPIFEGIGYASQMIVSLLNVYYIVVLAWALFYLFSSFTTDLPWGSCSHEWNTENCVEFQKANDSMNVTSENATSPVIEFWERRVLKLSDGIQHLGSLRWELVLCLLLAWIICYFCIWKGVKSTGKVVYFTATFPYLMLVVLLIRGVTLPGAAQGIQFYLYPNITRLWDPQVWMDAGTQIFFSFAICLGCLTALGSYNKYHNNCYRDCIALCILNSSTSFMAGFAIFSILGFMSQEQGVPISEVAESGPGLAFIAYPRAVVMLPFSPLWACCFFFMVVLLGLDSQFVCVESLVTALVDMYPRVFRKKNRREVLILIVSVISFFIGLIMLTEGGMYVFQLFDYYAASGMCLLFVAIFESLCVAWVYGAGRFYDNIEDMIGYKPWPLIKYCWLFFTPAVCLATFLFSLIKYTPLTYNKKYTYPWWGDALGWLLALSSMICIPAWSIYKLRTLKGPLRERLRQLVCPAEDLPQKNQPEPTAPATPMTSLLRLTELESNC
# mGAT4 = biological target: T4, mGAT4 (Mus musculus, UniProt P31650); test: [3H]GABA uptake assay in HEK-293 cells stably expressing mGAT4; type: cell-based; details: for IC50: [3H]GABA uptake, read-out: pIC50 ± SEM mGAT4 (converted); for remaining [3H]GABA uptake mGAT4: in the presence of 100 μM inhibitor
# T4 construct: expressed in transfected cells; host or cells: HEK-293
# T4 sequence (P31650 1-627): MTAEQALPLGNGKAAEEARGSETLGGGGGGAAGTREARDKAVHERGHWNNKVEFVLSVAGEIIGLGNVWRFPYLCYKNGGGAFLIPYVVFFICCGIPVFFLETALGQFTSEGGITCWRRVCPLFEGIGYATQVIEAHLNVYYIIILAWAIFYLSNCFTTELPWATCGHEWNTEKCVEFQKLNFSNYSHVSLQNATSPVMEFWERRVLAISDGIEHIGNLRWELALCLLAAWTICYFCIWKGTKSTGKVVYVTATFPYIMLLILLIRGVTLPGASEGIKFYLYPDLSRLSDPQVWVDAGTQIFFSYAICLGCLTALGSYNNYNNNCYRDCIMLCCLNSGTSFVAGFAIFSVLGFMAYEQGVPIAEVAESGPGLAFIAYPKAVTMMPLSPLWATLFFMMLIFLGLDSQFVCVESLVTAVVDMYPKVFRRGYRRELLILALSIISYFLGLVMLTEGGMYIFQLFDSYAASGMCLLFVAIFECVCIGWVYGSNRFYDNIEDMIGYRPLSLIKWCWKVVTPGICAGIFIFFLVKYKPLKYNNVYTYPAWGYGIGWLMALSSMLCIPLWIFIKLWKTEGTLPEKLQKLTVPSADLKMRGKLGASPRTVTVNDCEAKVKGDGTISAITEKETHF
# mGAT1 [2] = biological target: T1, mGAT1; test: competitive MS binding assay with NO711 as unlabeled marker (LC-ESI-MS/MS); details: for remaining NO711 binding mGAT1: in the presence of 100 μM inhibitor
# Procedure: Specific binding affinity toward mGAT1 was determined via a competitive mass spectrometry (MS) binding assay quantified by liquid chromatography–electrospray ionization tandem mass spectrometry (LC–ESI-MS/MS) with NO711 as an unlabeled marker.[50]
# MS binding assays for mGAT1 were performed as described earlier.[50] Inhibition of mGAT1 binding by the synthesized compounds was determined in MS binding assays at a screening concentration of 100 μM and analyzed by LC–ESI-MS/MS.
IC50 (mGAT1 [1]) [µM],IC50 (mGAT2) [µM],IC50 (mGAT3) [µM],IC50 (mGAT4) [µM],"Ki (mGAT1 [2]; MS binding assay, read-out: pKi ± SEM mGAT1 (converted)) [µM]",remaining [3H]GABA uptake mGAT1 (mGAT1 [1]),remaining NO711 binding mGAT1 (mGAT1 [2]),remaining [3H]GABA uptake mGAT2 (mGAT2),remaining [3H]GABA uptake mGAT3 (mGAT3),remaining [3H]GABA uptake mGAT4 (mGAT4),Compound
26.9,21.4,15.8,13.2,29.5,,,,,,"Cc1ccc(CNC(=O)C(CO)N(C)CCC=C2c3ccccc3C=Cc3ccccc32)cc1 (centres unmarked) [Compound 55e, 2-((3-(5H-Dibenzo[a,d][7]annulen-5-ylidene)propyl)(methyl)amino)-N-(4-methylbenzyl)-3-hydroxypropanamide]"
,25.7,10.5,27.5,,100 μM: 50%,100 μM: 86%,,,,"CN(CCC=C1c2ccccc2CCc2ccccc21)C(CO)C(=O)NCc1ccccc1Cl (centres unmarked) [Compound 56b, N-(2-Chlorobenzyl)-2-((3-(10.11-dihydro-5H-dibenzo[a,d][7]annulen-5-ylidene)propyl)(methyl)amino)-3-hydroxypropanamide]"
61.7,29.5,14.5,10.2,,,100 μM: 87%,,,,"CN(CCC=C1c2ccccc2CCc2ccccc21)C(CO)C(=O)NCc1ccc(Cl)cc1 (centres unmarked) [Compound 56c, N-(4-Chlorobenzyl)-2-((3-(10,11-dihydro-5H-dibenzo[a,d][7]annulen-5-ylidene)propyl)(methyl)amino)-3-hydroxypropanamide]"
17.8,21.4,12.9,12.3,,,100 μM: 96%,,,,"CN(CCC=C1c2ccccc2CCc2ccccc21)C(CO)C(=O)NCc1ccc(F)cc1 (centres unmarked) [Compound 56d, N-(4-Fluorobenzyl)-2-((3-(10,11-dihydro-5H-dibenzo[a,d][7]annulen-5-ylidene)propyl)(methyl)amino)-3-hydroxypropanamide]"
24.5,17.8,69.2,36.3,,,100 μM: 84%,,,,"O=C(NCc1ccccc1)C(CO)N1CCC(=C2c3ccccc3-c3ccccc32)CC1 (centres unmarked) [Compound 57, N-Benzyl-2-[4-(9H-fluoren-9-ylidene)piperidin-1-yl]-3-hydroxypropanamide]"
35.5,22.4,20.9,23.4,,,100 μM: 83%,,,,"O=C(NCc1ccccc1)C(CO)N1CCC(=C2c3ccccc3CCc3ccccc32)CC1 (centres unmarked) [Compound 58, N-Benzyl-2-(4-(10,11-dihydro-5H-dibenzo[a,d][7]annulen-5-ylidene)piperidin-1-yl)-3-hydroxypropanamide]"
22.9,22.9,58.9,26.9,,,100 μM: 80%,,,,"CN(CCON=C(c1ccccc1)c1ccccc1)C(CO)C(=O)NCc1ccccc1 (centres unmarked) [Compound 59a, N-Benzyl-2-((2-(((diphenylmethylene)amino)oxy)ethyl)(methyl)amino)-3-hydroxypropanamide]"
44.7,12.9,15.8,12.9,,,100 μM: 92%,,,,CN(CCON=C(c1ccccc1)c1ccccc1)C(CO)C(=O)NCc1ccccc1Cl (centres unmarked) [Compound 59b]
26.3,17,19.5,16.6,,,100 μM: 84%,,,,"CN(CCON=C(c1ccccc1)c1ccccc1)C(CO)C(=O)NCc1ccc(F)cc1 (centres unmarked) [Compound 59c, 2-((2-(((Diphenylmethylene)amino)oxy)ethyl)(methyl)amino)-N-(4-fluorobenzyl)-3-hydroxypropanamide]"
7.08,,,,,,100 μM: 81%,100 μM: 108%,100 μM: 69%,100 μM: 77%,"CCC(C(=O)NCc1ccccc1)N1CCC(=C(c2sccc2C)c2sccc2C)CC1 (centres unmarked) [Compound 64a, N-Benzyl-2-(4-(bis(3-methylthiophen-2-yl)methylene)piperidin-1-yl)butanamide]"
,,,,,100 μM: 66%,100 μM: 108%,100 μM: 101%,100 μM: 61%,100 μM: 64%,"CCC(C(=O)NCc1ccccc1Cl)N1CCC(=C(c2sccc2C)c2sccc2C)CC1 (centres unmarked) [Compound 64b, 2-(4-(Bis(3-methylthiophen-2-yl)methylene)piperidin-1-yl)-N-(2-chlorobenzyl)butanamide]"
58.9,26.3,13.8,26.3,,,100 μM: 104%,,,,"CC(C(=O)NCc1ccccc1)N(C)CCON=C(c1ccccc1)c1ccccc1 (centres unmarked) [Compound 65, N-Benzyl-2-((2-(((diphenylmethylene)amino)oxy)ethyl)(methyl)amino)propanamide]"
,,16.6,13.8,,100 μM: 50%,100 μM: 104%,100 μM: 55%,,,"CCC(C(=O)NCc1ccccc1)N(C)CCON=C(c1ccccc1)c1ccccc1 (centres unmarked) [Compound 66a, N-Benzyl-2-((2-(((diphenylmethylene)amino)oxy)ethyl)(methyl)amino)butanamide]"
,,45.7,,,100 μM: 69%,100 μM: 107%,100 μM: 59%,,100 μM: 50%,"CCC(C(=O)NCc1ccccc1Cl)N(C)CCON=C(c1ccccc1)c1ccccc1 (centres unmarked) [Compound 66b, N-(2-Chlorobenzyl)-2-((2-(((diphenylmethylene)amino)oxy)ethyl)(methyl)amino)butanamide]"
24.5,13.2,13.5,12,,,100 μM: 83%,,,,"Cc1ccsc1C(=CCCN(C)C(C)C(=O)NCc1ccccc1)c1sccc1C (centres unmarked) [Compound 67, N-Benzyl-2-((4,4-bis(3-methylthiophen-2-yl)but-3-en-1-yl)(methyl)amino)propanamide]"
26.9,39.8,30.9,12.9,,,100 μM: 81%,,,,"CCC(C(=O)NCc1ccccc1)N(C)CCC=C(c1sccc1C)c1sccc1C (centres unmarked) [Compound 68, N-Benzyl-2-((4,4-bis(3-methylthiophen-2-yl)but-3-en-1-yl)(methyl)amino)butanamide]"

# From PMC8397297 (ACS Chemical Neuroscience, 2021)
